Structures can show the parent of a compound that is named as a salt.
Assays:
[1] = tested on: MDA-MB-231 breast cancer cell lines; experiment: Evaluation of inhibition on cell growth (MTS); format: cell-based; details: Homo sapiens, MDA-MB-231, 120 hours
Procedure: (§1) MDA-MB-231 breast cancer cell lines (ATCC #HTB-26) and BxPC-3 pancreas cancer cell lines (ATCC #CRL 1687), which have been reported to express XIAP, were obtained from ATCC (American type culture collection; Rockville, Md.). MDA-MB-231 cell lines were incubated in L-15 medium supplemented with 10% FBS and 1% penicillin/streptomycin (Gibco BRL) at a T-75 cm^2 growth flask. In addition, BxPC-3 cell lines were incubated in RPMI medium supplemented with 10% FBS and 1% penicillin/streptomycin. For experiments of toxicity to normal cells, fibroblasts Hs27 (ATCC #CRL 1634) and Balb/c3t3 (ATCC #CCL 163) were used. The various cell lines were transferred into 96-well plates at a density of 3,000˜5,000 cells/100 μL, and cultured for 24 hours under conditions of 37° C., 5% CO2, 95% air, and 100% relative humidity (MDA-MB-231 cells were cultured under atmospheric conditions). The cells were treated with 10 μM˜0.1 nM of test compounds, and MDA-MB-231, BxPC-3, and normal cell lines were cultured for 120, 96, and 72 hours, respectively.
(§2) Cell viabilities of MDA-MB-231 cell lines were measured at an absorbance of 490 nm using CellTiter 96™ AQueous One Solution Cell proliferation Assay (MTS, Promega), and cell viabilities of BxPC-3 and normal cell lines were measured by fixing cells with 10% TCA (trichloroacetic acid), staining with SRB (sulforhodamine B), and measuring at 540 nm. From the values, GI50 values in which test compounds reduce the growth of cancer cells by 50% were calculated. The growth rates of cancer cells were calculated from following Equation 1 or 2. [(Ti−Tz)/(C−Tz)]×100 (for Ti>=Tz) [Equation 1] [(Ti−Tz)/Tz]×100 (for Ti<Tz) [Equation 2] In Equations 1 and 2, Tz refers to a density of untreated cells, which is an absorbance in 0% cell growth groups. C refers to a density of cells cultured by adding only medium, and Ti refers to a density of cells treated with test compounds.
(§3) GI50 value is the concentration of a test compound when the value of Equation 1 is 50, which indicates the concentration of test compound required to inhibit the cancer cells by 50%. On each measurement, test compounds were compared with a control.
(§4) The activity value of each compound (GI50 value) was shown in Table 5, and an IAP antagonist was used as a control.
(§5) In the activity measurement on MDA-MB-231 breast cancer cell lines, the values were represented as “***” for 100 nM or less, “**” for over 100 nM to below 1,000 nM, and “*” for 1,000 nM or more. In the measurement on normal cell lines, Balb/C and Hs27, the values were represented as “+++” for 10,000 nM or more, “++” for over 5,000 nM to below 10,000 nM, and “+” for 5,000 nM or less.

[2] = Toxicity to normal cells (SRB); format: cell-based, human; details: human, Hs27 fibroblasts (normal cell line)
Procedure: as §1, §2, §3, §4, §5

Row | Structure (SMILES) | GI50 [1] [nM] | GI50 at 72 h [2] [nM]
1 | CN[C@@H](C)C(=O)N[C@H](C(=O)N1CCC[C@H]1C(=O)Nc1cc2c(NCC3CCCCC3)ncnc2cc1OC)C(C)(C)C [Example 77, (S)—N-(4-(cyclohexylmethyl)amino)-7-methoxyquinazolin-6-yl)-1-((S)-3,3-dimethyl-2-((S)-2-(methylamino)propanamido)butanoyl)pyrrolidine-2-carboxamide hydrochloride] | ≤ 100 | > 10000
2 | CN[C@@H](C)C(=O)N[C@H](C(=O)N1CCC[C@H]1C(=O)Nc1cc2c(Nc3cccnc3Cl)ncnc2cc1OC)C(C)(C)C [Example 78, (S)—N-(4-((2-chloropyridin-3-yl)amino)-7-methoxyquinazolin-6-yl)-1-((S)-3,3-dimethyl-2-((S)-2-(methylamino)propanamido)butanoyl)pyrrolidine-2-carboxamide hydrochloride] | ≤ 100 | > 10000
3 | CN[C@@H](C)C(=O)N[C@H](C(=O)N1CCC[C@H]1C(=O)Nc1cc2c(Nc3ccc(Cl)nc3)ncnc2cc1OC)C(C)(C)C [Example 79, (S)—N-(4-((6-chloropyridin-3-yl)amino)-7-methoxyquinazolin-6-yl)-1-((S)-3,3-dimethyl-2-((S)-2-(methylamino)propanamido)butanoyl)pyrrolidine-2-carboxamide hydrochloride] | ≤ 100 | > 10000
4 | CN[C@@H](C)C(=O)N[C@H](C(=O)N1CCC[C@H]1C(=O)Nc1cc2c(Nc3ccc(Br)cc3Cl)ncnc2cc1OC)C(C)(C)C [Example 80, (S)—N-(4-((4-bromo-2-chlorophenyl)amino)-7-methoxyquinazolin-6-yl)-1-((S)-3,3-dimethyl-2-((S)-2-(methylamino)propanamido)butanoyl)pyrrolidine-2-carboxamide hydrochloride] | ≤ 100 | > 10000
5 | CN[C@@H](C)C(=O)N[C@H](C(=O)N1CCC[C@H]1C(=O)Nc1cc2c(Nc3cccc(Cl)c3Cl)ncnc2cc1OC)C(C)(C)C [Example 81, (S)—N-(4-((2,3-dichlorophenyl)amino)-7-methoxyquinazolin-6-yl)-1-((S)-3,3-dimethyl-2-((S)-2-(methylamino)propanamido)butanoyl)pyrrolidine-2-carboxamide hydrochloride] | ≤ 100 | > 10000
6 | CN[C@@H](C)C(=O)N[C@H](C(=O)N1CCC[C@H]1C(=O)Nc1cc2c(Nc3ccc(F)cc3Br)ncnc2cc1OC)C(C)(C)C [Example 82, (S)—N-(4-((2-bromo-4-fluorophenyl)amino)-7-methoxyquinazolin-6-yl)-1-((S)-3,3-dimethyl-2-((S)-2-(methylamino)propanamido)butanoyl)pyrrolidine-2-carboxamide hydrochloride] | ≤ 100 | > 10000
7 | CN[C@@H](C)C(=O)N[C@H](C(=O)N1CCC[C@H]1C(=O)Nc1cc2c(NCCc3ccccc3)ncnc2cc1OC)C(C)(C)C [Example 83, hydrochloride] | 100 to 1000 | > 10000
8 | C#CCOc1ccc(Nc2ncnc3cc(OC)c(NC(=O)[C@@H]4CCCN4C(=O)[C@@H](NC(=O)[C@H](C)NC)C(C)(C)C)cc23)cn1 [Example 84, (S)-1-((S)-3,3-dimethyl-2-((S)-2-(methylamino)propanamido)butanoyl)-N-(7-methoxy-4-((6-(prop-2-yn-1-yloxy)pyridin-3-yl)amino)quinazolin-6-yl)pyrrolidine-2-carboxamide hydrochloride] | 100 to 1000 | > 10000
9 | CN[C@@H](C)C(=O)N[C@H](C(=O)N1CCC[C@H]1C(=O)Nc1cc2c(Nc3ccc(N4CCCCC4)c(F)c3)ncnc2cc1OC)C(C)(C)C [Example 85, (S)-1-((S)-3,3-dimethyl-2-((S)-2-(methylamino)propanamido)butanoyl)-N-(4-((3-fluoro-4-(piperidin-1-yl)phenyl)amino)-7-methoxyquinazolin-6-yl)pyrrolidine-2-carboxamide hydrochloride] | ≤ 100 | > 10000
10 | CN[C@@H](C)C(=O)N[C@H](C(=O)N1CCC[C@H]1C(=O)Nc1cc2c(Nc3ccc(N4CCN(C)CC4)c(Cl)c3)ncnc2cc1OC)C(C)(C)C [Example 86, (S)—N-(4-((3-chloro-4-(4-methylpiperazin-1-yl)phenyl)amino)-7-methoxyquinazolin-6-yl)-1-((S)-3,3-dimethyl-2-((S)-2-(methylamino)propanamido)butanoyl)pyrrolidine-2-carboxamide hydrochloride] | ≤ 100 | > 10000
11 | CN[C@@H](C)C(=O)N[C@H](C(=O)N1CCC[C@H]1C(=O)Nc1cc2c(Nc3ccc(Br)c(Cl)c3F)ncnc2cc1OC)C(C)(C)C [Example 87, (S)—N-(4-((4-bromo-3-chloro-2-fluorophenyl)amino)-7-methoxyquinazolin-6-yl)-1-((S)-3,3-dimethyl-2-((S)-2-(methylamino)propanamido)butanoyl)pyrrolidine-2-carboxamide hydrochloride] | ≤ 100 | > 10000
12 | CN[C@@H](C)C(=O)N[C@H](C(=O)N1CCC[C@H]1C(=O)Nc1cc2c(Nc3ccc(-n4ccnc4)cc3)ncnc2cc1OC)C(C)(C)C [Example 88, (S)—N-(4-((4-(1H-imidazol-1-yl)phenyl)amino)-7-methoxyquinazolin-6-yl)-1-((S)-3,3-dimethyl-2-((S)-2-(methylamino)propanamido)butanoyl)pyrrolidine-2-carboxamide hydrochloride] | ≤ 100 | > 10000
13 | CN[C@@H](C)C(=O)N[C@H](C(=O)N1CCC[C@H]1C(=O)Nc1cc2c(NC(=O)Nc3ccccc3F)ncnc2cc1OC)C(C)(C)C [Example 89, (S)-1-((S)-3,3-dimethyl-2-((S)-2-(methylamino)propanamido)butanoyl)-N-(4-(3-(2-fluorophenyl)ureido)-7-methoxyquinazolin-6-yl)pyrrolidine-2-carboxamide hydrochloride] | ≤ 100 | > 10000
14 | CN[C@@H](C)C(=O)N[C@H](C(=O)N1CCC[C@H]1C(=O)Nc1cc2c(Nc3ccc(N4CCOCC4)cc3)ncnc2cc1OC)C(C)(C)C [Example 90, (S)-1-((S)-3,3-dimethyl-((S)-2-(methylamino)propanamido)butanoyl)-N-(7-methoxy-4-((4-morpholinophenyl)amino)quinazolin-6-yl)pyrrolidine-2-carboxamide hydrochloride] | ≤ 100 | > 10000
15 | C#CCOc1ccc(Nc2ncnc3cc(OC)c(NC(=O)[C@@H]4CCCN4C(=O)[C@@H](NC(=O)[C@H](C)NC)C(C)(C)C)cc23)cc1 [Example 91, (S)-1-((S)-3,3-dimethyl-2-((S)-2-(methylamino)propanamide)butanoyl)-N-(7-methoxy-4-((4-(2-propyn-1-yloxy)phenyl)amino)quinazolin-6-yl)pyrrolidine-2-carboxamide hydrochloride] | ≤ 100 | > 10000
16 | CN[C@@H](C)C(=O)N[C@H](C(=O)N1CCC[C@H]1C(=O)Nc1cc2c(Nc3ccc(N4CCN(CC5CC5)CC4)c(Cl)c3)ncnc2cc1OC)C(C)(C)C [Example 92, (S)—N-(4-((3-chloro-4-(4-(cyclopropylmethyl)piperazin-1-yl)phenyl)amino)-7-methoxyquinazolin-6-yl)-1-((S)-3,3-dimethyl-2-((S)-2-(methylamino)propanamido)butanoyl)pyrrolidine-2-carboxamide] | ≤ 100 | > 10000
17 | CN[C@@H](C)C(=O)N[C@H](C(=O)N1CCC[C@H]1C(=O)Nc1cc2c(Nc3ccc4c(=O)cc(C)oc4c3)ncnc2cc1OC)C(C)(C)C [Example 93, (S)-1-((S)-3,3-dimethyl-2-((S)-2-(methylamino)propanamide)butanoyl)-N-(7-methoxy-4-((2-methyl-4-oxo-4H-chromen-7-yl)amino)quinazolin-6-yl)pyrrolidine-2-carboxamide hydrochloride] | ≤ 100 | > 10000
18 | CN[C@@H](C)C(=O)N[C@H](C(=O)N1CCC[C@H]1C(=O)Nc1cc2c(Nc3ccc4c(c3)CC(=O)N4)ncnc2cc1OC)C(C)(C)C [Example 94, (S)-1-((S)-3,3-dimethyl-2-((S)-2-(methylamino)propanamide)butanoyl)-N-(7-methoxy-4-((2-oxoindolin-5-yl)amino)quinazolin-6-yl)pyrrolidine-2-carboxamide hydrochloride] | 100 to 1000 | > 10000
